Publication PMC7292537, “BGAL1 depletion boosts the level of β‐galactosylation of N‐ and O‐glycans in N. benthamiana” (Plant Biotechnology Journal, 2020)

Tested on: T1, NbBGAL1 (SPα-BGAL1)
T1 construct: mature residues 25-846 (GH35 + Gal-lectin domain), own signal peptide replaced by barley alpha-amylase signal peptide, C-terminal StrepII tag (WSHPQFEK); transiently expressed in N. benthamiana, apoplastic fluid not purified; 95 kDa full length plus 48 kDa GH35 and 38 kDa truncated forms; precursor 846 aa
Assay: fluorescein release, Hanes-Woolf and Lineweaver-Burk
Format: biochemical, Nicotiana benthamiana
Settings: read-out: apparent KM; apoplastic fluid with overexpressed enzyme; 50 mM MES pH 5.0, 25 °C, 1 h; FDG 0-250 µM (printed unit mM doubtful, perhaps µM); unit of the source corrected; heading: apparent KM

Km: 0.0298 mM
Structure (SMILES): O=C1OC2(c3ccc(O[C@@H]4O[C@H](CO)[C@H](O)[C@H](O)[C@H]4O)cc3Oc3cc(O[C@@H]4O[C@H](CO)[C@H](O)[C@H](O)[C@H]4O)ccc32)c2ccccc21 [FDG, fluorescein di-β-D-galactopyranoside]
